≈ marks a conversion by molar mass, not a printed value. Like-named read-outs stand apart in the source and are kept apart here.
Experiments:
Acinetobacter = test: microbe, parasite or virus in culture; format: cell-based; conditions: for MIC: Acinetobacter, read-out: MIC Acinetobacter
E. coli k12 = test: microbe, parasite or virus in culture; format: cell-based; conditions: for MIC: Escherichia coli, K12, read-out: MIC E. coli k12
E. coli tolc = test: microbe, parasite or virus in culture; format: cell-based; conditions: for MIC: Escherichia coli, read-out: MIC E. coli tolc
B. anthracis = test: microbe, parasite or virus in culture; format: cell-based, Bacillus anthracis; conditions: for MIC: Bacillus anthracis, read-out: MIC B. anthracis
E. faecalis = test: microbe, parasite or virus in culture; format: cell-based; conditions: for MIC: Enterococcus faecalis, read-out: MIC E. faecalis
S. aureus (MSSA) = test: microbe, parasite or virus in culture; format: cell-based; conditions: for MIC: Staphylococcus aureus, MSSA, read-out: MIC S. aureus (MSSA)
MRSA NRS 70 = test: microbe, parasite or virus in culture; format: cell-based, S. aureus; conditions: for MIC: Staphylococcus aureus
Mtb H37Rv (ATCC 27294) = test: microbe, parasite or virus in culture; format: cell-based, Mycobacterium tuberculosis; conditions: for MIC: Mycobacterium tuberculosis
Klebsiella = test: MIC against Klebsiella; format: cell-based; conditions: Table 1
Protocol: (§1) The following compounds have been synthesized and tested for their activities against bacteria (Table 1) and their abilities to inhibit Dxr (Table 2). MIC is determined as described in Yendapally et al. (Journal of Medicinal Chemistry 2008, 51, 1487); and IC50 is determined as described in Henriksson et al. (Journal of Biological Chemistry 2007, 282, 19905).

P. aeruginosa = test: MIC against P. aeruginosa; format: cell-based; conditions: Pseudomonas aeruginosa; Table 1
Protocol: as §1

S. pneumonia = test: MIC against S. pneumonia; format: cell-based; conditions: Table 1
Protocol: as §1

M. tuberculosis Dxr = M. tuberculosis Dxr (Mycobacterium tuberculosis, UniProt P9WNS1); test: biochemical; conditions: IC50 (μM)
[1] = read-out: Mtb MIC (ug/mL) (7H9)
[2] = read-out: Mtb MIC (ug/mL) (GAST)
[3] = read-out: MIC M. tuberculosis (H37Rv)

Chain of M. tuberculosis Dxr (P9WNS1 whole entry, looked up): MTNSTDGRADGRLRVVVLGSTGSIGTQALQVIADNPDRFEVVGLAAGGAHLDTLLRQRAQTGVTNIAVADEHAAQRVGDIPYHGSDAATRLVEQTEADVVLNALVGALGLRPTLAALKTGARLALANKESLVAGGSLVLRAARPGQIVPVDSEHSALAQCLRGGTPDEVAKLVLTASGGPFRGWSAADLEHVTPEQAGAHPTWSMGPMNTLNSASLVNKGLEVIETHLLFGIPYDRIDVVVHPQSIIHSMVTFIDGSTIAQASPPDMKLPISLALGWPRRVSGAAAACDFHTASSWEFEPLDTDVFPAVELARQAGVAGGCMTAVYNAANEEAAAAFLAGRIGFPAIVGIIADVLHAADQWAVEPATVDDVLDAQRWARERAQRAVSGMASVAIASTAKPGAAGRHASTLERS

SMILES	MIC (Acinetobacter) [µg/mL]	MIC (E. coli k12) [µg/mL]	MIC (E. coli tolc) [µg/mL]	MIC (Klebsiella) [µg/mL]	MIC (P. aeruginosa) [µg/mL]	MIC (S. pneumonia) [µg/mL]	MIC (B. anthracis) [µg/mL]	MIC (E. faecalis) [µg/mL]	MIC (S. aureus (MSSA)) [µg/mL]	MIC (MRSA NRS 70; read-out: MIC MRSA NRS 70) [µg/mL]	MIC (Mtb H37Rv (ATCC 27294); read-out: MIC H37 Rv) [µg/mL]	MIC (Mtb H37Rv (ATCC 27294); read-out: Mtb MIC (ug/mL)) [µg/mL]	further results
CC(=O)N(O)CCCP(=O)(OCC(=O)OC(C)(C)C)OCC(=O)OC(C)(C)C [Compound 23]	–	–	–	–	–	–	–	–	–	–	–	–	MIC Acinetobacter (Acinetobacter): >200 µg/mL; MIC E. coli k12 (E. coli k12): >200 µg/mL; MIC E. coli tolc (E. coli tolc): >200 µg/mL; MIC B. anthracis (B. anthracis): >200 µg/mL; MIC E. faecalis (E. faecalis): >200 µg/mL; MIC S. aureus (MSSA) (S. aureus (MSSA)): 100 µg/mL (≈ 235 µM); MIC S. aureus (MRSA) (MRSA NRS 70): 25 µg/mL (≈ 58.8 µM); MIC M. tuberculosis (H37Rv) (Mtb H37Rv (ATCC 27294)): 400 µg/mL (≈ 940 µM)
CC(=O)N(O)CCCP(=O)(OCOC(=O)C(C)(C)C)OCOC(=O)C(C)(C)C [Compound 24]	–	–	–	–	–	–	–	–	–	–	–	–	MIC Acinetobacter (Acinetobacter): >200 µg/mL; MIC E. coli k12 (E. coli k12): >200 µg/mL; MIC E. coli tolc (E. coli tolc): 100 µg/mL (≈ 235 µM); MIC B. anthracis (B. anthracis): 200 µg/mL (≈ 470 µM); MIC E. faecalis (E. faecalis): >200 µg/mL; MIC S. aureus (MSSA) (S. aureus (MSSA)): 100 µg/mL (≈ 235 µM); MIC S. aureus (MRSA) (MRSA NRS 70): 50 µg/mL (≈ 118 µM); MIC M. tuberculosis (H37Rv) (Mtb H37Rv (ATCC 27294)): 50 to 100 µg/mL; antitubercular activity (in words) (Mtb H37Rv (ATCC 27294)): better antitubercular activity
CC(=O)N(O)CCCP(=O)(OC(C)OC(=O)OC(C)(C)C)OC(C)OC(=O)OC(C)(C)C (stereo not drawn) [Compound 25]	–	–	–	–	–	–	–	–	–	–	–	–	MIC Acinetobacter (Acinetobacter): >200 µg/mL; MIC E. coli k12 (E. coli k12): >200 µg/mL; MIC E. coli tolc (E. coli tolc): >200 µg/mL; MIC B. anthracis (B. anthracis): 200 µg/mL (≈ 412 µM); MIC E. faecalis (E. faecalis): >200 µg/mL; MIC S. aureus (MSSA) (S. aureus (MSSA)): 100 µg/mL (≈ 206 µM); MIC S. aureus (MRSA) (MRSA NRS 70): 50 µg/mL (≈ 103 µM); MIC M. tuberculosis (H37Rv) (Mtb H37Rv (ATCC 27294)): 400 µg/mL (≈ 824 µM)
CC(=O)N(O)CCCP(=O)(OCOC(=O)c1ccccc1)OCOC(=O)c1ccccc1 [Compound 26]	–	–	–	–	–	–	–	–	–	–	–	–	MIC Acinetobacter (Acinetobacter): 200 µg/mL (≈ 430 µM); MIC E. coli k12 (E. coli k12): >200 µg/mL; MIC E. coli tolc (E. coli tolc): 50 µg/mL (≈ 107 µM); MIC B. anthracis (B. anthracis): 100 µg/mL (≈ 215 µM); MIC E. faecalis (E. faecalis): >200 µg/mL; MIC S. aureus (MSSA) (S. aureus (MSSA)): >200 µg/mL; MIC S. aureus (MRSA) (MRSA NRS 70): >200 µg/mL; MIC M. tuberculosis (H37Rv) (Mtb H37Rv (ATCC 27294)): 25 to 100 µg/mL; antitubercular activity (in words) (Mtb H37Rv (ATCC 27294)): better antitubercular activity
CC(=O)N(O)CCCP(=O)(OC(C)OC(=O)c1ccccc1)OC(C)OC(=O)c1ccccc1 (stereo not drawn) [Compound 27]	–	–	–	–	–	–	–	–	–	–	–	–	MIC Acinetobacter (Acinetobacter): 100 µg/mL (≈ 203 µM); MIC E. coli k12 (E. coli k12): 50 µg/mL (≈ 101 µM); MIC E. coli tolc (E. coli tolc): 50 µg/mL (≈ 101 µM); MIC B. anthracis (B. anthracis): 50 µg/mL (≈ 101 µM); MIC E. faecalis (E. faecalis): >200 µg/mL; MIC S. aureus (MSSA) (S. aureus (MSSA)): >200 µg/mL; MIC S. aureus (MRSA) (MRSA NRS 70): >200 µg/mL; MIC M. tuberculosis (H37Rv) (Mtb H37Rv (ATCC 27294)): 100 to 200 µg/mL
CCOP(=O)(CCCN(O)C(=O)c1ccccc1)OCC [ERJ 58]	> 200	> 200	> 200	> 200	> 200	> 200	> 200	> 200	> 200	> 200	> 200	–	MIC (Mtb H37Rv (ATCC 27294); [1]): > 500 µg/mL; MIC (Mtb H37Rv (ATCC 27294); [2]): 31.2 µg/mL (≈ 99.1 µM)
CCOP(=O)(CCCN(O)C(=O)CCc1ccccc1)OCC [ERJ 70]	> 200	> 200	> 200	> 200	> 200	> 200	> 200	> 200	> 200	> 200	> 200	–	MIC (Mtb H37Rv (ATCC 27294); [1]): 3.12 µg/mL (≈ 9.1 µM); MIC (Mtb H37Rv (ATCC 27294); [2]): > 200 µg/mL
CCOP(=O)(CCCN(O)C(=O)CCCc1ccccc1)OCC [ERJ 79]	> 200	> 200	> 200	> 200	> 200	> 200	> 200	> 200	100 (≈ 280 µM)	50 (≈ 140 µM)	> 200	–	MIC (Mtb H37Rv (ATCC 27294); [1]): 3.12 µg/mL (≈ 8.74 µM); MIC (Mtb H37Rv (ATCC 27294); [2]): > 200 µg/mL
CCOP(=O)(CCCN(O)C(=O)Cc1ccccc1)OCC [ERJ 91]	> 200	> 200	> 200	> 200	> 200	> 200	> 200	> 200	100 (≈ 304 µM)	50 (≈ 152 µM)	> 200	–	–
CCOP(=O)(CCCN(O)C(=O)c1cccc2ccccc12)OCC [ERJ 93]	> 200	> 200	> 200	> 200	> 200	> 200	200 (≈ 547 µM)	200 (≈ 547 µM)	100 (≈ 274 µM)	50 (≈ 137 µM)	> 200	–	–
CCOP(=O)(CCCN(O)C(=O)c1ccc2ccccc2c1)OCC [ERJ 96]	> 200	> 200	> 200	> 200	> 200	> 200	> 200	> 200	> 200	> 200	> 200	–	–
CCOP(=O)(CCCN(O)C(=O)c1ccc(-c2ccccc2)cc1)OCC [ERJ 104]	> 200	> 200	100 (≈ 255 µM)	> 200	> 200	> 200	> 200	> 200	100 (≈ 255 µM)	100 (≈ 255 µM)	> 200	–	–
CC(=O)N(O)CCCP(=O)(O)O [FR900098, reference compound]	50 (≈ 254 µM)	200 (≈ 1010 µM)	12.5 (≈ 63.4 µM)	–	–	–	50 (≈ 254 µM)	> 200	> 200	–	–	> 200	MIC (MRSA NRS 70; read-out: MIC S. aureus (MRSA)): 50 µg/mL (≈ 254 µM); antitubercular activity (in words) (Mtb H37Rv (ATCC 27294)): inactive; MIC (Mtb H37Rv (ATCC 27294); [3]): > 500 µg/mL; IC50 (M. tuberculosis Dxr): 2 µM
O=CN(O)CCCP(=O)(O)O [Fosmidomycin, reference compound]	100 (≈ 546 µM)	12.5 (≈ 68.3 µM)	6.25 (≈ 34.1 µM)	–	–	–	0.78 (≈ 4.26 µM)	> 200	> 200	–	–	–	activity against B. anthracis (MIC) (B. anthracis): 0.78 lg/mL; MIC (MRSA NRS 70; read-out: MIC S. aureus (MRSA)): 200 µg/mL (≈ 1090 µM); MIC (Mtb H37Rv (ATCC 27294); read-out: MIC 7H9 (μg/mL)): > 500 µg/mL; MIC (Mtb H37Rv (ATCC 27294); read-out: MIC GAST/Fe (μg/mL)): > 500 µg/mL; MIC (Mtb H37Rv (ATCC 27294); [3]): > 500 µg/mL
CCOP(=O)(CCCN(OCc1ccccc1)C(C)=O)OCC [GSJ 20 (Rotamer B)]	> 200	> 200	> 200	> 200	> 200	> 200	> 200	> 200	> 200	> 200	> 200	> 200	–
CCOP(=O)(CCCN(OCCc1ccccc1)C(C)=O)OCC [GSJ 25]	> 200	> 200	> 200	> 200	> 200	> 200	> 200	> 200	> 200	> 200	> 200	> 200	–
CCOP(=O)(CCCN(OCCCCc1ccccc1)C(C)=O)OCC [GSJ 26]	> 200	> 200	200 (≈ 519 µM)	> 200	> 200	> 200	> 200	200 (≈ 519 µM)	100 (≈ 259 µM)	200 (≈ 519 µM)	–	–	MIC H37 Rv (Mtb H37Rv (ATCC 27294)): Some act 200; Mtb MIC (ug/mL) (Mtb H37Rv (ATCC 27294)): SA 200
CCOP(=O)(CCCN(OCCCc1ccccc1)C(C)=O)OCC [GSJ 27]	> 200	> 200	> 200	> 200	> 200	> 200	> 200	> 200	> 200	> 200	> 200	> 200	–
CCOP(=O)(CCCN(OC(C)c1ccccc1)C(C)=O)OCC (stereo not drawn) [GSJ 28]	> 200	> 200	> 200	> 200	> 200	> 200	> 200	> 200	100 (≈ 280 µM)	50 (≈ 140 µM)	> 200	> 200	–
CCOP(=O)(CCCN(OCCCc1ccc(OC)cc1)C(C)=O)OCC [GSJ 30]	> 200	> 200	> 200	> 200	> 200	> 200	> 200	> 200	> 200	> 200	> 200	> 200	–
CCOP(=O)(CCCN(OCCc1ccc(OC)cc1)C(C)=O)OCC [GSJ 31]	> 200	> 200	> 200	> 200	> 200	> 200	> 200	> 200	200 (≈ 516 µM)	50 (≈ 129 µM)	> 200	> 200	–

Source: US9593136B2 (priority 2011, dated 2017)
